The text below walks through data of US8247378B2, “Homing peptide for tumor vasculature” (The Chinese University of Hong Kong, priority 2009, dated 2012).

Data set [1] deals with tumor vasculature of orthotopic colorectal cancer. The data set can be described thus: Therapeutic treatment with proapoptotic conjugate, cleaved caspase 3/CD31 staining. The data set is classed as in vivo. From the text:
We conjugated TCP-1 with a pro-apoptotic peptide, D(KLAKLAK)2, which disrupts mitochondrial membranes upon receptor-mediated cell internalization and causes programmed cell death. This approach has been successfully employed for targeted apoptosis induction in angiogenic endothelial cells, tumor lymphatics and the vasculature of white fat. See: Zhang L, Giraudo E, Hoffman J A, Hanahan D, and Ruoslahti E (2006). Lymphatic zip codes in premalignant lesions and tumors. Cancer Res 66, 5696-5706; Kolonin M G, Saha P K, Chan L, Pasqualini R, and Arap W (2004). Reversal of obesity by targeted ablation of adipose tissue. Nat Med 10, 625-632; and, Ellerby H M, Arap W, Ellerby L M, Kain R, Andrusiak R, Rio G D, Krajewski S, Lombardo C R, Rao R, Ruoslahti E, et al. (1999). Anti-cancer activity of targeted pro-apoptotic peptides. Nat Med 5, 1032-1038. All-D enantiomer D(KLAKLAK)2 was used to avoid degradation by proteases. Ellerby H M, et al., (1999) Nat Med 5, 1032-1038.
Mice bearing orthotopic colorectal cancer were randomized into three groups. The therapeutic group was i.v. injected 260 μg/dose/mouse of the conjugated CTPSPFSHC-GG-D(KLAKLAK)2 [CDK]. Control groups received an equimolar mixture of CTPSPFSHC (SEQ ID NO:1) and D(KLAKLAK)2 [DKK], or PBS alone once every three days. Treatment was terminated 7 days after the first peptide administration as described in Kolonin M G, Saha P K, Chan L, Pasqualini R, and Arap W (2004). Reversal of obesity by targeted ablation of adipose tissue. Nat Med 10, 625-632 and Giordano R J, Landenranta J, Zhen L, Chukwueke U, Petrache I, Langley R R, Fidler I J, Pasqualini R, Tuder R M, and Arap W (2008). Targeted induction of lung endothelial cell apoptosis causes emphysema-like changes in the mouse. J Biol Chem 283, 29447-29460.
Tumors and control organs were dissected at the termination of the experiment. Histologic analysis was done to evaluate the density of tumor blood vessels. Apoptotic vascular endothelial cells were visualized by double staining with anticleaved caspase-3 and CD31 antibodies. […]

A further data set has as its system SW1116 cells. Nature of the data set: In vitro cell viability assay (MTT assay), SW1116. The data set is classed as cell-based, human. As to conditions: SW1116, 48 h, increasing concentrations. How it is done: (§1) Cell lines and cell culture: The murine colorectal cancer cell colon 26, human colon cancer cell SW1116 were cultured at 37° C. in a humidified atmosphere containing 5% CO2, in RPMI-1640 medium supplemented with 2 g/L sodium bicarbonate, 100 units/ml penicillin, […] streptomycin and 10% FBS.
(§2) In vitro cell viability assay (MTT assay): Cell viability was assessed by MTT assay, which depends on the ability of viable cells to reduce the MTT to a colored formazan product. In brief, cells (10^4 cells per well) were seeded in 96-well microculture plates overnight for attachment, and then incubated with increasing concentrations of the peptides CTPSPFSHC-GG-D(KLAKLAK)2 or CTPSPFSHC (SEQ ID NO:1) or D(KLAKLAK)2 in 100 μl of 1% FBS in DMEM for 6˜48 hours at 37° C. In the next step, MTT was added to each well, and the cells were further incubated for 3 h. The colored formazan product was determined photometrically at 570 nm in a multi-well plate reader (Bio-Rad).
(§3) TCP-1 conjugate and induction of apoptosis in colorectal cancer cells: Next, in order to examine whether the TCP-1 peptide could serve as a drug carrier into cancer cells, we synthesized a chimeric peptide of TCP-1 peptide to a proapoptotic peptide D(KLAKLAK)2, which disrupts mitochondrial membranes upon receptor-mediated cell internalization and causes programmed cell death. Increasing concentrations of TCP-1 conjugate (TCP-GG-D(KLAKLAK)2), equimolar TCP-1 or D(KLAKLAK)2 were incubated with colon 26 or SW1116 cells at 37° C. Cell viability was assessed after 6 h (colon 26) and 48 h (SW1116). The effect of TCP-1 conjugate on the cell viability was determined and compared respectively with TCP-1 or D(KLAKLAK)2 alone.
For orientation: Formazan colour is commonly taken as a measure of viable cells.

The next data set concerns colon 26 cells. The data set can be described thus: In vitro cell viability assay (MTT assay), colon 26. The settings on record: colon 26, 6 h, increasing concentrations. It counts as cell-based, murine. As for the experimental part: as §1, §2, §3
Data set [2] deals with blood vessels of human colon and rectal adenocarcinoma tissues. Nature of the data set: Peptide binding to tissue sections from human cancer. As to conditions: for binding to blood vessels of cancer tissues / binding to vasculature of normal colon tissues: 10 μmol/L, 1 hour, 37° C., human biopsy sections. How it is done:
To establish the ability of TCP-1 to selectively bind to the vasculature of human tumors, human biopsy samples were studied. They were double stained and images photographically overlayed to determine tissue specificity. More specifically, multiple human biopsy samples containing both colon adenocarcinoma and normal colonic tissue were snap frozen, embedded in OCT, cut into 5 μm sections, and then arrayed on slides. The slides were incubated with 10 μmol/L FITC-CTPSPFSHC (SEQ ID NO:2) or FITC-CVQTAQLLC (SEQ ID NO:3) for 1 hour at 37° C., washed three times with PBS, fixed with 4% paraformaldehyde. Blood vessels were stained with mouse anti-human CD31 monoclonal antibody and Alexa Fluor 568 goat anti-mouse IgG as above described.
The positive binding was usually found in tumor tissues at more advanced stages (in terms of lymphovascular permeation, T staging, N staging, and overall Dukes' staging).

The test system of data set [3] is blood vessels (CD31) in gastric cancer tissues. Nature of the data set: Biodistribution of FITC-conjugated peptide, gastric cancer model. The data set is classed as in vivo, mouse. As to conditions: 300 nmol i.v., 1 hour circulation. How it is done:
To further confirm whether the selective phage homing was due to the CTPSPFSHC (SEQ ID NO:1) peptide (TCP-1), chemically synthetic FITC-conjugated TCP-1 or control peptide was intravenously injected into gastric cancer-bearing mice to study the location of the peptide. Biodistribution of fluorescein-conjugated peptides was examined after i.v. injection of the peptide (300 nmol in 300 μl PBS) into the tail vein of a gastric cancer-bearing mouse. The peptide was allowed to circulate for 1 hour.
Tumor and control tissues were collected and frozen sections prepared as described above. Blood vessels were stained by CD31 antibody (secondary antibody conjugated Alexa-568). […] FITC-labeled control peptide was not found in the tumor tissues (FIG. 10 bottom). Taken together with the immunolocalization analyses of TCP-1 phage homing, the peptide localization data confirmed that TCP-1 peptide also homed specifically to blood vessels in gastric cancer tissues but not to the vasculature of control organs.

Data set [4] relates to blood vessels (CD31) in orthotopic colorectal tumor tissues. Nature of the data set: Biodistribution of FITC-conjugated peptide, colorectal cancer model. It counts as in vivo, mouse. As to conditions: 300 nmol i.v., 1 hour circulation. How it is done: To further confirm whether the selective phage homing was due to the CTPSPFSHC (SEQ ID NO:1) peptide (TCP-1), chemically synthetic FITC-conjugated TCP-1 or control peptide was intravenously injected into tumor-bearing mice to study the location of the peptide. Biodistribution of fluorescein-conjugated peptides was examined after i.v. injection of the peptide (300 nmol in 300 μl PBS) into the tail vein of a tumor-bearing mouse. The peptide was allowed to circulate for 1 hour.
Tumor and control tissues were collected and frozen sections prepared as described above in Example 1. Blood vessels were stained by CD31 antibody (secondary antibody conjugated Alexa-568). […] FITC-labeled control peptide was not found in the tumor tissues (FIG. 4A). Taken together with the immunolocalization analyses of TCP-1 phage homing, the peptide localization data confirmed that TCP-1 peptide homed specifically to blood vessels in tumor tissues but not to the vasculature of control organs.

For data set [5], the system named is orthotopic colorectal tumors. The data set can be described thus: Organ level imaging of tumor tissues with FITC-labeled peptide. It counts as in vivo, mice. As for the experimental part: Imaging of tissue was done under a blue light, by using the imaging system of KODAK Image Station 2000MM.
To determine whether FITC-labeled TCP-1 accumulated into the tumor tissues can be visualized at the organ level, tumor-bearing mice were injected intravenously with FITC-labeled TCP-1, control peptide or PBS alone. More specifically, tumor-bearing mice were i.v. injected with 500 nmol fluorescein-conjugated peptide (in 500 μl PBS). The peptide was allowed to circulate for 20 hour. The mice were killed, and various tissues were excised and examined for fluorescence. Organ imaging was done under a blue light, by using the imaging system of KODAK Image Station 2000MM.
Further, FITC-labeled TCP-1 could specifically accumulate in the tumor tissues with various volumes (diameter 2 mm, 6 mm, 8 mm tested) (FIG. 5B).

The mark [6] stands for this setting: 500 nmol i.v., 20 h after injection.

Where no end group is shown, it is not given here. The star is where a group is joined. FITC = O=C1OC2(c3ccc(O)cc3Oc3cc(O)ccc32)c2ccc(NC(=S)*)cc21

Take “CTPSPFSHC-GG-D(KLAKLAK)2 [TCP-GG-D(KLAKLAK)2]”: the “vasculature endothelial cells expressing active caspase 3 in tumors” value in data set [1] (260 μg/dose/mouse i.v. once every three days, 7 days, vs PBS or uncoupled mixture) was “obvious increase”. The “quantification of active caspase 3: apoptotic cells in the tumor vasculature” value in data set [1] (260 μg/dose/mouse i.v., compared to the other two groups) is given as “remarkable increased number of apoptotic cells”. The “apoptotic vasculature in normal colon tissues and brain tissues” value in data set [1] (mouse, in vivo) is on record as “hardly active caspase-3 positive cells”. In addition, the “effect on cell viability” value is “inhibited the proliferation of colon 26 and SW1116 cells more efficiently than D(KLAKLAK)2 alone” in the data set on SW1116 cells; “inhibited the proliferation of colon 26 and SW1116 cells more efficiently than D(KLAKLAK)2 alone” with colon 26 cells.
As for D(KLAKLAK)2 [reference compound], the “effect on cell viability” value with SW1116 cells and in the data set with colon 26 cells was “much weaker toxic effects” throughout.
Consider “FITC-CTPSPFSHC ({FITC}-CTPSPFSHC; cysteine pairing not given here) [FITC-labeled TCP-1, FITC-conjugated TCP-1 peptide for homing validation]”, for which, in data set [2], the “binding to blood vessels of cancer tissues” value is on record as “bound” and the “binding to vasculature of normal colon tissues” value is given as “not to vasculature of normal colon tissues”. In data set [2] (positive/total patients), the “colon adenocarcinomas recognized by the peptide” value was 5/10 and the “rectal adenocarcinomas recognized by the peptide” value is on record as 6/11. In data set [3], the “peptide localization in control organs” value is “not detectable” and the “peptide localization in tumor tissues (CD31 co-staining)” value (from here on “peptide localization in tumor tissues”) is reported as “colocalised with CD31”. In addition, in data set [4], the “peptide localization in control organs” value is “not detectable” and the “peptide localization in tumor tissues” value is “colocalised with CD31”. In data set [5] (setting [6]), the “fluorescent signal in other control tissues” value is reported as “no specific fluorescent signal” and the “fluorescent signal in tumors, whole tissue under blue light” value is on record as “strong fluorescent signal”. For the same substance, the “smallest tumor size detected” value in data set [5] (500 nmol i.v., 20 hour circulation) worked out at 2 mm.
“FITC-CVQTAQLLC ({FITC}-CVQTAQLLC; cysteine pairing not given here) [FITC-labeled control peptide, FITC-conjugated negative control peptide, reference compound]”: in data set [2], the “binding to blood vessels of cancer tissues” value is on record as “did not interact” and the “binding to vasculature of normal colon tissues” value is listed as “did not interact”. Further, in data set [3], the “peptide localization in tumor tissues” value is recorded as “not found”. Also, in data set [4], the “peptide localization in tumor tissues” value is “not found”. For the same substance, in data set [5] (setting [6]), the “fluorescent signal in other control tissues” value is “no specific fluorescent signal” and the “fluorescent signal in tumors, whole tissue under blue light” value is “no fluorescent signal”. In addition, the “peptide fluorescence in vasculature of tumor tissue (histological analysis)” value in data set [5] (20 h after injection) is reported as “not detectable”.
